Measurements published in PubChem BioAssay AID602347 (The Scripps Research Institute Molecular Screening Center, 2012).

Target: Monoacylglycerol lipase ABHD6 (Mus musculus) (UniProt Q8R2Y0)
Experiment: in vivo brain ABHD6 target engagement – gel-based competitive ABPP, fluorescence, mouse brain, in vivo study for DAGLb inhibitor project, late-stage follow-up (AID 602347)
Settings: in vivo dosing, stronger effect = higher value, dose or concentration not given here

Sequence of Monoacylglycerol lipase ABHD6 (Mus musculus) (Q8R2Y0 whole entry, looked up): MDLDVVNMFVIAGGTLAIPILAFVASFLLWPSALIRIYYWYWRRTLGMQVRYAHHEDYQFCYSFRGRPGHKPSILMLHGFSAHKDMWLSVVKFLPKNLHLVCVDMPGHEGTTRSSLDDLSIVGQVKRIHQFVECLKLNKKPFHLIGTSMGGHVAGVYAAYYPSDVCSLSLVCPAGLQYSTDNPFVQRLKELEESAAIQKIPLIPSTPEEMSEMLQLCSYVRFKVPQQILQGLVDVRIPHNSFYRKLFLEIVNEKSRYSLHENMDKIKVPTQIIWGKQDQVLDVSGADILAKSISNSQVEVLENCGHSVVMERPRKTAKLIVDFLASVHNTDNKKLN

| Compound | inhibition (with FP-Rh probe) | inhibition (with HT-01 probe) |
| --- | --- | --- |
| O=C(N1CCCCC1Cc1ccccc1)n1cc(-c2ccc(-c3ccccc3)cc2)nn1 (stereo unspecified) | 100% | 100% |
| O=C(N1CCCCC1Cc1ccccc1)n1cc(-c2ccc(-c3ccccc3C(F)(F)F)cc2)nn1 (stereo unspecified) | 95% | 95% |
| COc1ccccc1-c1ccc(-c2cn(C(=O)N3CCCCC3Cc3ccccc3)nn2)cc1 (stereo unspecified) | 100% | 100% |
